These results are taken from publication PMC9122626 (2020).

The test system of this test is human telomeric G4 DNA, dAGGG(TTAGGG)3 (DNA, G4) AGGGTTAGGGTTAGGGTTAGGG
The test is described as follows: CD melting (295 nm). Conditions: Na+ 100 mM; peptide concentration not given.

Molecules are shown by their SMILES.

`N[C@@H](Cc1ccc(O)cc1)C(=O)N[C@@H](CCC(=O)N[C@@H](CCC(=O)O)C(=O)O)C(=O)N[C@@H](CCC(=O)O)C(=O)O` (racemic): the ΔTm is ~ 3 °C.
